In patent publication US6455589B1, “Primary N-hydroxylamines” (The Regents of the University of California, priority 1999, dated 2002):
Entries after “also recorded” stand apart in the source; their conditions may differ. Read-outs that look alike come from different tables or passages of the source.

Key:
IMR90 cells [1] = assay: Replicative life span of IMR90 cells (gain in PDLs, delay of senescence); assay type: cell-based, human; conditions: 25 μM
IMR90 cells [2] = assay: as above; assay type: cell-based, human; conditions: for Toxicity to the cells: high concentrations (100 μM); for Gain in PDLs: continuous cultivation, compared to control untreated cells
Protocol: Cultivating IMR90 cells in culture—Normal human […] fibroblasts (IMR90) cells were obtained from the Coriell Institute for Medical Research at a population doubling level (PDL) of 10.85. The PDLs were calculated as log2(D/Do), where D and Do are defined as the density of cells at the time of harvesting and seeding, respectively. Stock cultures were grown in 100 mm Corning tissue culture dishes containing 10 ml of Dulbecco's modified Eagle's medium (DMEM) supplemented with 10% (V/V) fetal bovine serum (Hyclone). Stock cultures were split once a week when near confluence. Cells were harvested by trypsinization for 5 min at 37° C., immediately collected in 5 ml complete DMEM, washed once with 5 ml complete DMEM and incubated for 10-15 min at 37° C. to allow the cells to recover.
To test the effect of hydroxylamines on replicative life span, IMR90 cells were seeded at 0.5×106 per 100 mm dish. N-hydroxylamines (N-t-butyl hydroxylamine, N-benzyl hydroxylamine, N-methyl hydroxyl- amine) were added either individually (final concentration 10 or 100 μM) or in a combination of all three N-hydroxylamines (30 μM each). The cultures were split after 7 days and seeded with fresh medium supplemented with the hydroxylamines described above. In other experiments the medium of the cultures was replaced after 3 days of seeding with fresh medium and with fresh N-hydroxylamines, the split was done as usual after 7 days from seeding. The effect of PBN on life span was tested as in (5).

Aβ(1-40) = molecular target: T1, Aβ(1-40) (Homo sapiens, UniProt P05067); assay: Inhibition of Aβ(1-40) beta-pleated sheet formation (Thioflavin T fluorescence); assay type: biochemical; conditions: compound 10 μM, 12 hours
T1 construct: particularly the aggregated fibrils of synthetic Aβ(1-40)
T1 sequence (P05067 672-711 limits assumed): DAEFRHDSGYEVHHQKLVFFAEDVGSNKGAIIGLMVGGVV
Source text: The deposition of amyloid β-peptide (Aβ) is associated with the development of Alzheimer's disease. See, for example, G. G. Glenner et al. (1984) Biochem. Biophys. Res. Commun., 120:885-890; and R. E. Tanzi (1989) Ann. Med., 21:91-94. Accordingly, compounds which effectively disrupt the formation of Aβ(1-40) or Aβ(1-42) beta-pleated sheets are potentially useful for preventing and/or reversing such amyloid deposits. Thioflavin T (ThT) is known to rapidly associate with beta-pleated sheets, particularly the aggregated fibrils of synthetic Aβ(1-40). This association gives rise to a new excitation maximum at 440 nm and to enhanced emission at 490 nm.
The experiments are performed using a CytoFluor II fluorescence plate reader having the following parameters: Filters (Excitation and Emission)=440 nm/20 and 490 nm/40; Gain=75; Cycle to Cycle Time=30 min; Run Time=720 min (24 cycles) or dependent on exp. design; Plate=96 well. […] The fluorescence measurement begins when the Aβ(1-40) is added and continues for a total of 12 hours. The percent inhibition of beta-pleated sheet formation is calculated from the relative fluorescence unit difference between aggregation in the presence and in the absence of the test compounds.

in vivo = conditions: male, C57BL/6J and DBA/2J, mouse, in vivo
Protocol: C57BL/6J and DBA/2J male mice (35-40 g) are tested for the acute lethal effects of adriamycin and the prevention of acute lethality by pretreatment doses of subject hydroxylamines. Mice are injected i.p with either saline or subject hydroxylamines 30 minutes prior to administration of adriamycin.

IMR90 cells [3] = assay: Senescence-dependent change in mitochondria of IMR90 cells, Rho123 accumulation by FACS; assay type: cell-based, human; conditions: for Rho123, AFU/PDL (rate of Rho123 accumulation per PDL): 100 μM, linear regression 26-50 PDLs; for Decrease of the rate of Rho123 accumulation as a function of senescence: vs control
Protocol: (§1) Analysis of the age-dependent changes in the steady state level of oxidants and mitochondrial membrane potential in IMR90 cells by FACS—[…] were trypsinized and resuspended into complete DMEM. For each condition, two tubes were prepared with 1×10^6 cells each. Tubes were then spun at 250 g for 10 min at room temperature and supernatant was replaced with 1 ml of Hanks Balanced Salt Solution (HBSS) without Ca^++ or Mg^++. Rho123 (20 μl of 525 μM stock; 10.5 μM final concentration) was added to one tube and DCFH (20 μl of 1.25 mM stock; 25 μM final concentration) was added to the other tube. The cells were then incubated in the dark in a water bath at 37° C. for 30 min followed by cell resuspension and centrifugation at 250 g for 10 min at room temperature. The supernatant (500 μl) was removed from each tube and the cells were resuspended in the remaining 500 μl before FACS analysis on a FACSort analyzer (Becton Dickinson, San Jose, Calif.). Cell Quest was used for data acquisition and analysis. The data is reported as the mean of the channel of the fluorescence histogram obtained. Fluorescence output was calibrated with LinearFlow Green Flow cytometry Intensity Calibration Particles (Molecular Probes, Eugene, Oreg.).

IMR90 cells [4] = assay: Steady state level of oxidants in IMR90 cells, DCFH oxidation by FACS; assay type: cell-based, human; conditions: for DCFH, AFU/PDL (rate of DCFH oxidation per PDL): 100 μM, linear regression 26-50 PDLs; for Percent of decrease in the rate of oxidants formation from control: DCFH oxidation, continuous treatment
Protocol: as §1

IMR90 cells [5] = assay: Cellular levels of GSH and GSSG in IMR90 cells (HPLC-EC); assay type: cell-based, human; conditions: for GSH / GSH/GSSG / GSSG: 100 μM, 26-50 PDLs; for Increase of the GSH/GSSG ratio: vs control
Protocol: Measurement of cellular levels of GSH and GSSG in IMR90 cells—Cultivated IMR90 cells (≈3×10^6) were washed once in cold PBS and resuspended in 200 μl of ice cold MSA (0.2M MSA/0.5mM diethylenetriamine pentaacetic acid, DTPA) and allowed to stand for 10 min at room temperature. Denatured proteins were removed by centrifugation and the supernatant was filtered with 30,000 D MW cut-off Ultrafree filters (Millipore) before injection. Fifty microliters were injected and separated on an HPLC column (3-μm 0.46×15cm Suplecosil LC18-DB, Supelco, Bellefonte, Pa.) with a flow rate of 1 ml/min using a mobile phase consisting of 25mM NaH2PO4, 5 mM octane sulfonic acid, and 2% acetonitrile, adjusted to pH 2.7 with phosphoric acid (26). An ESA model 5100A Coulochem detector, 5020 guard cell and model 5010 analytical cell combination was used for analysis. Oxidation potentials of 900 mV, 400 mV and 880 mV were used for guard cell, electrode 1 and 2, respectively. Full-scale output was 10 μA and peak areas were compared using commercial GSH and GSSG as standards.

IMR90 cells [6] = assay: Entry and concentration of N-t-butyl hydroxylamine in cells; assay type: in vitro ADME, human
IMR90 cells [7] = assay: H2O2-induced senescence of IMR90 cells; assay type: cell-based, human; conditions: 20 μM or 30 μM H2O2 once a week, cells continuously treated
Protocol: To determine the effect of H2O2 on the replicative life span, cells were first seeded with fresh medium with or without N-hydroxylamines (see above) for a week. Next, cells grown with or without N-hydroxylamines were each split into two additional groups and then either; 1) treated with 20 or 30 μM H2O2 or 2) without treatment with H2O2.

[8] = Auto-oxidation in a cell free system; assay type: physicochemical
cytochrome c = assay: Auto-oxidation of cyt c^II and direct reduction of cytochrome c by N-hydroxylamines; assay type: biochemical
Protocol: In order to test the effect of N-hydroxylamines on the spontaneous oxidation of cytochrome c, a complete reduction of cyt c^III was achieved by incubating the X/XO system for 4-5 min at 25° C. Auto-oxidation of cyt c^II is associated with a decrease in absorbance at 550 nm. Reduced cytochrome c was incubated at 25° C. with or without 2 or 3 mM N-hydroxylamines and the auto-oxidation was followed by spectrophotometer. The rate of reduction of cytochrome c by different concentrations of each N-hydroxylamine was measured by the increase in absorbance at 550 nm.

[9] = mice; cited from earlier work

CC1(C)CCCC(C)(C)N1[O] [TEMPO, 2,2,6,6-tetramethyl-piperidine-1-oxyl]
Delay of replicative senescence (IMR90 cells [1]): did not delay the replicative senescence | Delay of senescence of IMR90 cells (in words) (IMR90 cells [2]): none | Toxicity to the cells (IMR90 cells [2]): toxic

ONC1CCCCC1 [Example 3, N-Cyclohexylhydroxylamine]
Inhibition of Aβ(1-40) beta-pleated sheet formation (Aβ(1-40)): inhibit

CC1(C)CC(O)CC(C)(C)N1[O] [Example 4-OH-TEMPO, 4-hydroxy-2,2,6,6-tetramethylpiperidine-1-oxyl]
Delay of replicative senescence (IMR90 cells [1]): did not delay the replicative senescence | Delay of senescence of IMR90 cells (in words) (IMR90 cells [2]): none | Toxicity to the cells (IMR90 cells [2]): toxic

COc1cccc2c1C(=O)c1c(O)c3c(c(O)c1C2=O)C[C@@](O)(C(=O)CO)C[C@@H]3O[C@H]1C[C@H](N)[C@H](O)[C@H](C)O1 [adriamycin]
Acute lethality (dose range) (in vivo): 10 to 30 mg/kg | LD50 (in vivo): 25 mg/kg

CC(C)(C)ON [O-t-butyl hydroxylamine]
Delay of senescence of IMR90 cells (in words) (IMR90 cells [2]): accelerate senescence

CNO [NMHA, N-methyl hydroxylamine]
Rho123, AFU/PDL (rate of Rho123 accumulation per PDL) (IMR90 cells [3]): 15.3 (0.86) AFU/PDL | Decrease of the rate of Rho123 accumulation as a function of senescence (IMR90 cells [3]): 52% | DCFH, AFU/PDL (rate of DCFH oxidation per PDL) (IMR90 cells [4]): 0.45 (0.3) AFU/PDL | Percent of decrease in the rate of oxidants formation from control (IMR90 cells [4]): 79% | Delay of senescence of IMR90 cells (in words) (IMR90 cells [2]): active; also recorded: able to delay the senescence | GSH (IMR90 cells [5]): 52.15 ± 6.7 | GSH/GSSG (IMR90 cells [5]): 137.2 | GSSG (IMR90 cells [5]): 0.38 ± 0.08 | Increase of the GSH/GSSG ratio (IMR90 cells [5]): 94%

O=C1O[C@H]([C@@H](O)CO)C(O)=C1O [ascorbic acid]
Delay of senescence of IMR90 cells (in words) (IMR90 cells [2]): none

CC(C)NO [Example 1, N-Isopropylhydroxylamine]
Inhibition of Aβ(1-40) beta-pleated sheet formation (Aβ(1-40)): inhibit

CC(C)(C)N=O [tNB, nitroso-tert-butane]
Effect on IMR90 cells (IMR90 cells [2]; 10 μM in medium): no effect

CC(C)(C)NO [NtBHA, N-t-butyl hydroxylamine]
Rho123, AFU/PDL (rate of Rho123 accumulation per PDL) (IMR90 cells [3]): 9.3 (0.85) AFU/PDL | Decrease of the rate of Rho123 accumulation as a function of senescence (IMR90 cells [3]): 70% | DCFH, AFU/PDL (rate of DCFH oxidation per PDL) (IMR90 cells [4]): 0.27 (0.32) AFU/PDL | Percent of decrease in the rate of oxidants formation from control (IMR90 cells [4]): 88% | Delay of senescence of IMR90 cells (in words) (IMR90 cells [2]): delays senescence | Gain in PDLs (IMR90 cells [2]; 10 μM): 5.8 PDLs | Gain in PDLs (IMR90 cells [2]; 100 μM (added once per 7 days)): 19.7 PDLs | Concentration required to delay senescence (gain in PDLs), relative to PBN (IMR90 cells [2]; vs PBN 200 μM): 20 times lower | Concentration in the cells (IMR90 cells [6]): approximately 5 fold | Entry into the cells (IMR90 cells [6]): rapidly enters the cells | H2O2-induced senescence (IMR90 cells [7]): attenuated | GSH (IMR90 cells [5]): 49.5 ± 5.6 | GSH/GSSG (IMR90 cells [5]): 123.8 | GSSG (IMR90 cells [5]): 0.4 ± 0.045 | Increase of the GSH/GSSG ratio (IMR90 cells [5]): 75% | Stability to auto-oxidation [8]: stable to auto-oxidation | Direct reduction of cyt c^III to cyt c^II (cytochrome c): somewhat less efficient

CON [O-methyl hydroxylamine]
Delay of senescence of IMR90 cells (in words) (IMR90 cells [2]): accelerate senescence

vitamin E
Delay of senescence of IMR90 cells (in words) (IMR90 cells [2]): none

ONCc1ccccc1 [NBHA, N-benzyl hydroxylamine]
Rho123, AFU/PDL (rate of Rho123 accumulation per PDL) (IMR90 cells [3]): 9.7 (0.86) AFU/PDL | Decrease of the rate of Rho123 accumulation as a function of senescence (IMR90 cells [3]): 69% | DCFH, AFU/PDL (rate of DCFH oxidation per PDL) (IMR90 cells [4]): 0.11 (0.08) AFU/PDL | Percent of decrease in the rate of oxidants formation from control (IMR90 cells [4]): 95% | Delay of senescence of IMR90 cells (in words) (IMR90 cells [2]): active; also recorded: able to delay the senescence | H2O2-induced senescence (IMR90 cells [7]): attenuated | GSH (IMR90 cells [5]): 48.4 ± 3.4 | GSH/GSSG (IMR90 cells [5]): 134.4 | GSSG (IMR90 cells [5]): 0.36 ± 0.015 | Increase of the GSH/GSSG ratio (IMR90 cells [5]): 90.4%

NO [HNHOH, hydroxylamine]
Anticancer activity [9]: possesses anticancer activity | Senescence [9]: delayed senescence

NOCc1ccccc1 [O-benzyl hydroxylamine]
Delay of senescence of IMR90 cells (in words) (IMR90 cells [2]): accelerate senescence

catalase
Delay of senescence of IMR90 cells (in words) (IMR90 cells [2]): none

O=Cc1ccccc1 [benzaldehyde]
Delay of senescence of IMR90 cells (in words) (IMR90 cells [2]): without effect or toxic at high concentrations | Delay of senescence of IMR90 cells (in words) (IMR90 cells [2]; listed as Benzaldehyde): without effect and in high concentrations was toxic
